{"source": "paper PMC7968666", "about": "“The pharmacokinetics and drug-drug interactions of ivermectin in Aedes aegypti mosquitoes” (PLoS Pathogens, 2021)", "key": {"Aedes aegypti mosquitoes [1]": {"test_system": "Aedes aegypti mosquitoes", "conditions": "IVM 0.1, KCZ 5, RIF 10, RTV 10, PBO 10 μg/ml in blood; for Mosquito survival (%): 50 mosquitoes"}, "[2]": {"assay": "Pharmacokinetic and drug-drug interaction studies in blood-fed mosquitoes (concentration-time courses, population PK modelling)", "conditions": "for Ivermectin concentration in single mosquito: IVM (0.1 µg/ml) in human blood, Batch 4, individual mosquitoes, listed as IVM"}, "Aedes aegypti mosquitoes [3]": {"test_system": "Aedes aegypti mosquitoes", "assay": "Drug effect on mosquito fertility (percentage of eggs hatched)", "assay_type": "in vivo", "method": "The mixtures were rotated at room temperature for 30 min to ensure a uniform drug distribution (Rotator Genie, Scientific Industries, Bohemia, USA). […] Twelve hours later, the tap water was also removed to starve the mosquitoes. […] The mosquitoes were then feeding from blood through the netting and the Parafilm membrane. […] The photoperiod of the climate chamber and the insectary were synchronised. […] The engorged mosquitoes were either directly frozen at -20°C or returned to the climate chamber for certain time periods to assess the PK. […] Blood feeding was done as described above. […] In contrast to the PK experiments, the mosquitoes had unlimited access to water because a moistened oviposition substrate was inserted into the paper cup. […] Any hatched larva was counted and transferred to a rearing tray with a plastic pipette. The fertility was calculated as the percentage of eggs hatched. […] R Foundation for Statistical Computing, http://www.R-project.org, Vienna, Austria). Normality was assessed using the Shapiro-Wilk test. For normally distributed data (mortality, fecundity), group differences were assessed with one-way ANOVA testing, and, where applicable, followed up with Tukey's test. Group differences in fertility (not normally distributed) were evaluated with Kruskal-Wallis one-way analysis of variance, and Wilcoxon rank sum testing as post-hoc."}, "Anopheles mosquitoes": {"test_system": "Anopheles mosquitoes", "conditions": "cited from earlier work"}, "[4]": {"assay": "Mosquito dosing experiments: ivermectin recovered from single mosquitoes directly after membrane blood feeding (LC-MS/MS)", "assay_type": "in vivo, Aedes aegypti", "method": "Drug stock solutions were prepared in DMSO and added to blank human blood at a ratio of 1:1000 so that the DMSO content was less than 0.2%. The mixtures were rotated at room temperature for 30 min to ensure a uniform drug distribution (Rotator Genie, Scientific Industries, Bohemia, USA). The sugar water within the mosquito cages was replaced by tap water 24 h prior to the PK experiments. Twelve hours later, the tap water was also removed to starve the mosquitoes. On the day of the PK experiment, 25–35 starved, female mosquitoes with an age of 6–7 days post-emergence were transferred with a mouth aspirator into 2 dl paper cups that were sealed with a piece of mosquito netting. […] A petri dish (35 mm x 10 mm, BD, Franklin Lakes, USA) was filled with 2.55 ml of warm blood, sealed with a piece of Parafilm (Parafilm M sealing film, Huberlab AG, Aesch, Switzerland) stretched over the rim and turned upside down on top of the paper cup. The mosquitoes were then feeding from blood through the netting and the Parafilm membrane. The feeding was conducted in a climate chamber (HPP110, Memmert GmbH + Co.KG, Schwabach, Germany) at 26° C, 70% humidity, and 50% light intensity. The photoperiod of the climate chamber and the insectary were synchronised. After 20 min of feeding, the cups were placed on ice to immobilise the mosquitoes and separate the fully engorged ones. […]\nThe first aim was to evaluate the variability of the blood uptake by the mosquitoes. […] The strength of the association was assessed using a linear regression model and its correlation coefficient R^2 using GraphPad prism software 9.0.0 (San Diego, USA). […]\nMosquito extracts were analysed using a modular ultra-high-pressure liquid chromatography (UPLC) system from Shimadzu (Kyoto, Japan) connected to an API 5500 QTRAP tandem mass spectrometer (AB Sciex, Massachusetts, USA). A previously developed and validated LC-MS/MS method for the quantification of ivermectin in human plasma and blood was used for the analyses. […]"}, "Ae. aegypti": {"test_system": "Ae. aegypti", "set-up": "method as in PMID 20540931", "conditions": "single oral dose of 150 μg/kg; cited from earlier work"}, "[5]": {"conditions": "ivermectin 0.1 μg/ml plus ritonavir 10 μg/ml in blood"}, "[6]": {"conditions": "non-parametric bootstrap analysis (n = 1’000)"}, "[7]": {"conditions": "100 eggs laid 48-96 h post-treatment, IVM 0.1, KCZ 5, RIF 10, RTV 10, PBO 10 μg/ml in blood"}}, "note": "Where “and” joins values, the source holds several entries; their conditions need not be identical. Equal entries are not always repeated. Entries after “also recorded” stand apart in the source; their conditions may differ. Where two headings read alike, the source gives them in different places.", "data": [{"smiles": "CCC(C)C1OC2(CCC1C)CC1CC(CC=C(C)C(OC3CC(OC)C(OC4CC(OC)C(O)C(C)O4)C(C)O3)C(C)C=CC=C3COC4C(O)C(C)=CC(C(=O)O1)C34O)O2", "note": "(stereo not shown) [ivermectin]", "values": [{"measurement": "Mosquito survival (%)", "setting": "Aedes aegypti mosquitoes [1]; 0 days post feeding", "value": 100, "unit": "%"}, {"measurement": "Mosquito survival (%)", "setting": "Aedes aegypti mosquitoes [1]; 1 day post feeding", "value": 100, "unit": "%"}, {"measurement": "four-day mosquito mortality", "setting": "Aedes aegypti mosquitoes [1]; four days, 3 batches of 50", "value": 17, "unit": "%"}, {"measurement": "zero-order elimination rate", "setting": "[2]; 0.1 μg/ml ivermectin in blood, pharmacometric modelling", "value": 5.5, "unit": "pg/h"}, {"measurement": "Course / extent of elimination from the mosquitoes", "setting": "[2]; IVM 0.1, KCZ 5, RIF 10, PBO 10 μg/ml in blood, up to 72 h", "value": "after 72 h only traces of ivermectin were still detectable"}, {"measurement": "Type of elimination kinetics in the mosquito", "setting": "[2]; IVM 0.1, KCZ 5, RIF 10, RTV 10, PBO 10 μg/ml in blood", "value": "zero-order elimination; also recorded: zero-order kinetics"}, {"measurement": "Ivermectin concentration in single mosquito", "setting": "[2]; 0 h post feeding", "value": "0.079 ng/mg msq (2×) and 0.077 ng/mg msq (2×) and 0.075 ng/mg msq and 0.084 ng/mg msq (2×) and 0.087 ng/mg msq and 0.089 ng/mg msq (2×) and 0.085 ng/mg msq and 0.088 ng/mg msq and 0.078 ng/mg msq (2×) and 0.083 ng/mg msq (4×) and 0.062 ng/mg msq and 0.074 ng/mg msq"}, {"measurement": "Ivermectin concentration in single mosquito", "setting": "[2]; 6 h post feeding", "value": "0.100 ng/mg msq (2×) and 0.086 ng/mg msq (2×) and 0.098 ng/mg msq and 0.092 ng/mg msq (2×) and 0.079 ng/mg msq and 0.085 ng/mg msq and 0.104 ng/mg msq and 0.082 ng/mg msq and 0.094 ng/mg msq and 0.083 ng/mg msq and 0.103 ng/mg msq (2×) and 0.160 ng/mg msq and 0.148 ng/mg msq and 0.096 ng/mg msq and 0.111 ng/mg msq and 0.113 ng/mg msq"}, {"measurement": "Ivermectin concentration in single mosquito", "setting": "[2]; 12 h post feeding", "value": "0.073 ng/mg msq and 0.065 ng/mg msq and 0.093 ng/mg msq (2×) and 0.095 ng/mg msq (2×) and 0.090 ng/mg msq (3×) and 0.085 ng/mg msq (2×) and 0.063 ng/mg msq and 0.087 ng/mg msq and 0.077 ng/mg msq and 0.104 ng/mg msq and 0.116 ng/mg msq and 0.103 ng/mg msq and 0.086 ng/mg msq and 0.098 ng/mg msq and 0.124 ng/mg msq"}, {"measurement": "Ivermectin concentration in single mosquito", "setting": "[2]; 24 h post feeding", "value": "0.073 ng/mg msq (2×) and 0.070 ng/mg msq (2×) and 0.074 ng/mg msq and 0.068 ng/mg msq and 0.090 ng/mg msq and 0.064 ng/mg msq (3×) and 0.067 ng/mg msq and 0.078 ng/mg msq and 0.055 ng/mg msq and 0.062 ng/mg msq and 0.058 ng/mg msq and 0.072 ng/mg msq and 0.056 ng/mg msq (2×) and 0.084 ng/mg msq and 0.057 ng/mg msq"}, {"measurement": "Ivermectin concentration in single mosquito", "setting": "[2]; 36 h post feeding", "value": "0.068 ng/mg msq (3×) and 0.044 ng/mg msq and 0.052 ng/mg msq and 0.090 ng/mg msq and 0.039 ng/mg msq and 0.038 ng/mg msq and 0.056 ng/mg msq and 0.053 ng/mg msq and 0.071 ng/mg msq and 0.060 ng/mg msq (2×) and 0.050 ng/mg msq and 0.036 ng/mg msq and 0.051 ng/mg msq and 0.062 ng/mg msq and 0.043 ng/mg msq and 0.037 ng/mg msq and 0.073 ng/mg msq"}, {"measurement": "IOV dose (inter-occasion variability), estimate", "setting": "[2]; final population PK model", "value": 0.11}, {"measurement": "Inter-individual variability (ω) of dose, estimate", "setting": "[2]; final population PK model", "value": 0.075}, {"measurement": "Inter-individual variability (ω) of kel, estimate", "setting": "[2]; final population PK model", "value": 0.25}, {"measurement": "kel (zero-order elimination rate), estimate", "setting": "[2]; final population PK model, 0.1 μg/ml ivermectin in blood", "value": 0.0055, "unit": "ng/h"}, {"measurement": "dose (amount absorbed from the blood meal), estimate", "setting": "[2]; final population PK model, 0.1 μg/ml ivermectin in blood, median mosquito weight 3.4 mg", "value": 0.28, "unit": "ng"}, {"measurement": "Amount of ivermectin imbibed per feeding, mean ± SD", "setting": "[2]; human blood spiked with 0.1 μg/ml ivermectin, four batches", "value": "0.36 ± 0.06", "unit": "ng"}, {"measurement": "Effect of ritonavir on the elimination rate of ivermectin", "setting": "[2]; [5]", "value": "not affected"}, {"measurement": "Increase of ivermectin exposure (AUC) compared to ivermectin alone", "setting": "[2]; [5]", "value": 29, "unit": "%"}, {"measurement": "IOV dose, bootstrap median", "setting": "[2]; [6]", "value": 0.11}, {"measurement": "Inter-individual variability (ω) of dose, bootstrap median", "setting": "[2]; [6]", "value": 0.075}, {"measurement": "Inter-individual variability (ω) of kel, bootstrap median", "setting": "[2]; [6]", "value": 0.25}, {"measurement": "Tlag, bootstrap median", "setting": "[2]; [6]", "value": 18.5, "unit": "h"}, {"measurement": "dose, bootstrap median", "setting": "[2]; [6]", "value": 0.28, "unit": "ng"}, {"measurement": "Tlag_add_rit, bootstrap median", "setting": "[2]; non-parametric bootstrap analysis (n = 1’000), ritonavir co-treatment", "value": 11.4, "unit": "h"}, {"measurement": "Mosquito fertility, Batch 1, hatching rate", "setting": "Aedes aegypti mosquitoes [3]; [7]", "value": 1, "unit": "%"}, {"measurement": "Mosquito fertility, Batch 2, hatching rate", "setting": "Aedes aegypti mosquitoes [3]; [7]", "value": 0, "unit": "%"}, {"measurement": "Mosquito fertility, Batch 3, hatching rate", "setting": "Aedes aegypti mosquitoes [3]; [7]", "value": 1, "unit": "%"}, {"measurement": "Effect on fertility of mosquito eggs", "setting": "Aedes aegypti mosquitoes [3]; ivermectin 0.1 μg/ml in blood", "value": "sterilised almost all mosquito eggs"}, {"measurement": "Lethal concentration for Anopheles mosquitoes", "setting": "Anopheles mosquitoes", "value": "low nanomolar range"}, {"measurement": "Saturation of uptake over the dose range", "setting": "[4]; 0.01–1 μg/ml ivermectin in blood", "value": "no saturation was observed; also recorded: without showing saturation"}, {"measurement": "Dosing precision (%CV) of ivermectin, adjusted for mosquito weight", "setting": "[4]; 0.01–1 μg/ml ivermectin in blood, n = 30 mosquitoes per dose", "value": "less than 13.4%"}, {"measurement": "Ivermectin concentration per mosquito weight", "setting": "[4]; ivermectin dose 0.01 µg/ml in blood, directly after feeding, single mosquitoes 1-30", "value": "0.007 ng/mg and 0.009 ng/mg and 0.008 ng/mg and 0.010 ng/mg and 0.011 ng/mg"}, {"measurement": "Host blood concentration relative to LD50 against Ae. aegypti", "setting": "Ae. aegypti", "value": "≤ 10 % of the LD50"}]}]}
